Source: patent publication US20160159808A1, “HETEROCYCLIC COMPOUND” (TAKEDA PHARMACEUTICAL COMPANY LIMITED, priority 2013, published 2016)

Assays:
[1] = test system: Male C57BL/6 mice; experiment: Contextual fear conditioning test, MK-801-induced deficits; type: in vivo; details: 30 mg/kg p.o. 60 min before test, MK-801 (maleate) 0.08 mg/kg s.c. 30 min before test, n=10, FIG. 1
Description: Improvement effect on MK-801 ((5S,10R)-5-methyl-10,11-dihydro-5H-5,10-epiminodibenzo[a,d][7]annulene)-induced disorder in contextual fear conditioning test.
Male C57BL/6 mice were purchased from CLEA Japan, Inc. They were used for an experiment after a habituation period of at least one week after carrying them in the animal experimental facility. They were bred in the animal experimental facility with environment in which 12-hours light-dark cycle was performed, humidity and temperature were controlled, and free water drinking and feeding were allowed. Handling of experimental animals and experimental procedure of this study were approved by the Experimental Animal Ethics Committee of Takeda Pharmaceutical Company Limited.
A test compound was suspended in 0.5% methylcellulose solution at a dose of 30 mg/kg, and orally administered. MK-801 (maleate) (Sigma-Aldrich, St Louis, Mo.) was dissolved in saline at a dose of 0.08 mg/kg, and subcutaneously administered. All drugs were administered to mice at a dose of 10 mL/kg.
Contextual fear conditioning test is widely used as memory and learning test system depending on the hippocampus and amygdala. The improvement effect of test compounds on MK-801-induced deficits was investigated by contextual fear conditioning test. The test compounds and MK-801 (maleate) were administered 60 min and 30 min, respectively, before the test. 0.5% methylcellulose and saline were administered to the control groups 60 min and 30 min, respectively, before the test. 0.5% methylcellulose and MK-801 (maleate) were administered to the vehicle groups 60 min and 30 min, respectively, before the test. […] In the test session on day 2 of the experiment, mice were placed in the same chamber for 7 minutes, and freezing was measured during that period. The freezing was calculated as a percentage of freezing rates during measuring period with use of an automatic analysis software manufactured by the O'Hara & Co., Ltd. All data were shown as the mean+standard error (n=10). […]

[2] = biological target: T1, human PDE2A3 enzyme (Homo sapiens, UniProt O00408); experiment: PDE Enzyme Inhibitory Assay (SPA, [3H]cGMP substrate); type: biochemical; details: compound 1 μM; [3H]cGMP 77 nM; 60 min at room temperature; read-out: inhibitory rate (%) (1 μM)
T1 construct: Human PDE2A3 full-length gene was transduced into Sf9; His-tag; made in house; host or cells: Sf9 insect cells
Description: PDE Enzyme Inhibitory Assay Human PDE2A3 full-length gene was transduced into Sf9, and human PDE2A3 enzyme was purified by His-tag affinity column and gel filtration. The enzyme was stored at −70° C. until use. PDE activity was measured using a SPA (Scintillation Proximity Assay) (GE Healthcare). To evaluate the inhibitory activity of the compound, 10 μl of serial diluted compounds were reacted with 20 μl of PDE enzyme in assay buffer (50 mM HEPES-NaOH, 8.3 mM MgCl2, 1.7 mM EGTA, 0.1% BSA (pH 7.4)) for 30 min. at room temperature. Final concentration of DMSO in the reaction solution was 1 percent. Compounds were tested in duplicate in 96-well half-area plates (Corning) or 384-well OptiPlate (PerkinElmer). To start the reaction, 10 μl of substrate [^3H] cGMP (final concentration 77 nM, PerkinElmer) was added to a total volume of 40 μl. After reaction for 60 min at room temperature, 20 μl of 20 mg/mL yttrium SPA beads containing zinc sulfate was added to terminate the PDE reaction. After being settled for further 1 hour, the assay plates were counted in a scintillation counter (PerkinElmer) to allow calculation of inhibition rate. Inhibition rate was calculated on the basis of 0% control wells with enzyme and DMSO, and 100% control wells without enzyme.

T1 sequence (O00408 whole entry): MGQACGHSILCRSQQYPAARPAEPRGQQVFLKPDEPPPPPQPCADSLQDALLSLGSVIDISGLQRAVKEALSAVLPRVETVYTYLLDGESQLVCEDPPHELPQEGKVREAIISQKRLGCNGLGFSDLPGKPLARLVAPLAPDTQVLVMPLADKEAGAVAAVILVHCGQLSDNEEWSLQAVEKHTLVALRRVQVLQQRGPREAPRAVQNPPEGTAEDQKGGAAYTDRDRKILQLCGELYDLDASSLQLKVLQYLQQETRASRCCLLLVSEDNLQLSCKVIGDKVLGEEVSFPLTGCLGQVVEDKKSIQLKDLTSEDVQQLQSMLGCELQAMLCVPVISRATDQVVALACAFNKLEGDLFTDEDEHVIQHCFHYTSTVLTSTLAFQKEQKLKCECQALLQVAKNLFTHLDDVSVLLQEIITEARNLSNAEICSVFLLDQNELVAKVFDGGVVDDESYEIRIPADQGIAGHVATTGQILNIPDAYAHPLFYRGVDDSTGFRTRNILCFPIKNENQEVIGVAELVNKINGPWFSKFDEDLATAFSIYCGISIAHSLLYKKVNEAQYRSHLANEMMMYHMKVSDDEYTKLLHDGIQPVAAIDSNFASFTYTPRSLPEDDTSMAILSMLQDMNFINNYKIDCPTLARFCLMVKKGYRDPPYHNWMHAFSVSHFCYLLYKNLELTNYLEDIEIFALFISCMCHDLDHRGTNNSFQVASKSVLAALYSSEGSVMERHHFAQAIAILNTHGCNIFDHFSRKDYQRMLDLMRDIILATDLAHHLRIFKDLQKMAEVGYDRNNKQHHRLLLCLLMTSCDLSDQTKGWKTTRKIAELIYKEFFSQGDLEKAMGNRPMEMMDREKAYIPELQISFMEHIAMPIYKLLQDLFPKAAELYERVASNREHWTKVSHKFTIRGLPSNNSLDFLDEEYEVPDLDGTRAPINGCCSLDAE

inhibition at 1 µM [2] [%] | Structure (SMILES) | improvement effect on MK-801-induced deficits in contextual fear conditioning test (freezing) [1]
100 | Cc1cn(-c2nc3c(C(=O)N[C@@H](c4ccc(OC(F)(F)F)cc4)C(C)(C)O)cnn3cc2C)nn1 [Example 80, N-((1S)-2-hydroxy-2-methyl-1-(4-(trifluoromethoxy)phenyl)propyl)-6-methyl-5-(4-methyl-1H-1,2,3-triazol-1-yl)pyrazolo[1,5-a]pyrimidine-3-carboxamide] | improvement effect on MK-801-induced deficits was shown
100 | Cc1ncn(-c2nc3c(C(=O)N[C@@H](c4ccc(OC(F)(F)F)cc4)C(C)(C)O)cnn3cc2C)n1 [Example 161, N-((1S)-2-hydroxy-2-methyl-1-(4-(trifluoromethoxy)phenyl)propyl)-6-methyl-5-(3-methyl-1H-1,2,4-triazol-1-yl)pyrazolo[1,5-a]pyrimidine-3-carboxamide] | improvement effect on MK-801-induced deficits was shown
100 | Cc1ccc(-c2ccn3ncc(C(=O)N[C@@H](c4ccc(OC(F)(F)F)cc4)C(C)(C)O)c3n2)cn1 [Example 69, N-((1S)-2-hydroxy-2-methyl-1-(4-(trifluoromethoxy)phenyl)propyl)-5-(6-methylpyridin-3-yl)pyrazolo[1,5-a]pyrimidine-3-carboxamide] | improvement effect on MK-801-induced deficits was shown
